Test results taken from PubChem BioAssay (NCI).
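Assay format: 96-well plates, 48-hour exposure. TGI is the concentration that stops growth completely.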

Columns and labels:
Assay in all cases: NCI tumour cell line growth inhibition, 48 h
786-0 renal = tested on: 786-0 renal
A549 NSCLC = tested on: A549 NSCLC
ACHN renal = tested on: ACHN renal
BT-549 breast = tested on: BT-549 breast
CAKI-1 renal = tested on: CAKI-1 renal
CCRF-CEM leukemia = tested on: CCRF-CEM leukemia
COLO 205 colon = tested on: COLO 205 colon
DU-145 prostate = tested on: DU-145 prostate
EKVX NSCLC = tested on: EKVX NSCLC
HCC-2998 colon = tested on: HCC-2998 colon
HCT-116 colon = tested on: HCT-116 colon
HCT-15 colon = tested on: HCT-15 colon
HL-60(TB) leukemia = tested on: HL-60(TB) leukemia
HOP-62 NSCLC = tested on: HOP-62 NSCLC
HOP-92 NSCLC = tested on: HOP-92 NSCLC
HS 578T breast = tested on: HS 578T breast
HT29 colon = tested on: HT29 colon
IGROV1 ovarian = tested on: IGROV1 ovarian
K-562 leukemia = tested on: K-562 leukemia
KM12 colon = tested on: KM12 colon
LOX IMVI melanoma = tested on: LOX IMVI melanoma
M14 melanoma = tested on: M14 melanoma
MCF7 breast = tested on: MCF7 breast
MDA-MB-231 breast = tested on: MDA-MB-231 breast
MDA-MB-435 = tested on: MDA-MB-435
MDA-N = tested on: MDA-N
MOLT-4 leukemia = tested on: MOLT-4 leukemia
NCI-H23 lung = tested on: NCI-H23 lung
NCI-H460 lung = tested on: NCI-H460 lung
NCI-H522 lung = tested on: NCI-H522 lung
NCI/ADR-RES ovarian = tested on: NCI/ADR-RES ovarian
OVCAR-3 ovarian = tested on: OVCAR-3 ovarian
OVCAR-4 ovarian = tested on: OVCAR-4 ovarian
OVCAR-8 ovarian = tested on: OVCAR-8 ovarian
PC-3 prostate = tested on: PC-3 prostate
RXF 393 renal = tested on: RXF 393 renal
SF-268 CNS = tested on: SF-268 CNS
SF-295 CNS = tested on: SF-295 CNS
SF-539 CNS = tested on: SF-539 CNS
SK-MEL-28 melanoma = tested on: SK-MEL-28 melanoma
SK-MEL-5 melanoma = tested on: SK-MEL-5 melanoma
SK-OV-3 ovarian = tested on: SK-OV-3 ovarian
SN12C renal = tested on: SN12C renal
SNB-19 CNS = tested on: SNB-19 CNS
SNB-75 CNS = tested on: SNB-75 CNS
SR leukemia = tested on: SR leukemia
SW-620 colon = tested on: SW-620 colon
T-47D breast = tested on: T-47D breast
TK-10 renal = tested on: TK-10 renal
U251 CNS = tested on: U251 CNS
UACC-257 melanoma = tested on: UACC-257 melanoma
UACC-62 melanoma = tested on: UACC-62 melanoma
UO-31 renal = tested on: UO-31 renal
MALME-3M melanoma = tested on: MALME-3M melanoma
NCI-H226 lung = tested on: NCI-H226 lung
RPMI-8226 leukemia = tested on: RPMI-8226 leukemia
SK-MEL-2 melanoma = tested on: SK-MEL-2 melanoma

Measured: TGI

NC(=O)C(NC=O)c1ccccc1 (stereo not given)
not listed: MALME-3M melanoma | NCI-H226 lung | RPMI-8226 leukemia | SK-MEL-2 melanoma
> 100 µM: all other assays above

CC(C)CC(=O)NC(NC(C)C)(C(F)(F)F)C(F)(F)F
not listed: M14 melanoma | NCI-H23 lung | OVCAR-3 ovarian | SF-295 CNS | SK-OV-3 ovarian
> 100 µM: all other assays above
